As usually defined, the IC50 is the midpoint of a concentration-inhibition curve. Higher therefore signals lower potency.

Common to all, as to assay type: functional, cell-based
Test [1] can be described thus: Cytotoxicity against human MCF7/ADR cells by WST-1 assay. The note with it: NCI/ADR-RES. (Formazan colour is commonly taken as a measure of viable cells.)
Test [2] deals with MCF7. In words: Cytotoxicity against human tamoxifen-resistant MCF7 cells by WST-1 assay.
A further test has as its system MDA-MB-231. As to the kind of experiment: Cytotoxicity against human MDA-MB-231 cells by WST-1 assay.
Test [3] relates to MCF7. In words: Cytotoxicity against human MCF7 cells by WST-1 assay.

With `CC[C@@]1(O)C(=O)OCc2c1cc1n(c2=O)Cc2cc3ccccc3nc2-1` [CAMPTOTHECIN], the 50% inhibitory concentration (IC50) amounted to 0.8 µM in test [1], 1.8 µM in the test with MCF7 [2], 2.7 µM with MDA-MB-231 and 2.6 µM with MCF7 [3].

Regarding `CC(=O)OC[C@@]1(C)CCC[C@]2(C)[C@@H]1C[C@@H](O)[C@@]13C[C@H](CC[C@@H]21)[C@@](O)(CC[C@@]1(O)C(=O)[C@]24C[C@@H]1CC[C@H]2[C@]1(C)CCC[C@](C)(COC(C)=O)[C@H]1C[C@H]4O)C3=O` [CROTONKINENSIN D], the IC50 in test [1] came to 18.9 µM; in the test on MCF7 [2] it was 2.6 µM; with MDA-MB-231 it was 22 µM; with MCF7 [3], 9.4 µM.

`C[C@]1(CO)CCC[C@]2(C)[C@@H]1C[C@@H](O)[C@@]13C[C@H](CC[C@@H]21)[C@@](O)(CC[C@@]1(O)C(=O)[C@]24C[C@@H]1CC[C@H]2[C@]1(C)CCC[C@](C)(CO)[C@H]1C[C@H]4O)C3=O` [CROTONKINENSIN C]: the IC50 (in test [1]; in the test with MCF7 [2]; in the test on MDA-MB-231; in the test on MCF7 [3]) was above 30 µM in each case.

Take `COc1cccc2c1C(=O)c1c(O)c3c(c(O)c1C2=O)C[C@@](O)(C(=O)CO)C[C@@H]3O[C@H]1C[C@H](N)[C@H](O)[C@H](C)O1` [DOXORUBICIN]: in test [1], 83.2 µM corresponded to half-maximal inhibition (IC50). That is a double-digit micromolar value.

Source of the values: ChEMBL document CHEMBL1938248, “Symmetric dimers of ent-kaurane diterpenoids with cytotoxic activity from Croton tonkinensis” (Bioorg Med Chem Lett, 2012).
